Counter-ions that a name gives are not always drawn. Like-named read-outs stand apart in the source and are kept apart here.
Experiments:
collagenase type V [1] = test: Collagenase inhibition assay (spectrofluorometric); assay type: biochemical; settings: for IC50: collagenase type V, MMP-2 fluorogenic substrate, 1% DMSO, 95% confidence interval in brackets, read-out: Collagenase Inhibition IC50 µM (CI 95 ±)
Description: The assay was carried out according to a previously published protocol by Hartmann et al.. All required reagents for the assay were purchased from Sigma Aldrich. Both enzyme (collagenase type V; C-9263) and substrate (SCP0192 MMP-2 substrate, Sigma Aldrich) were dissolved in the reagent buffer (Tris–HCl; 10 mM pH 7.3) and diluted from stock solutions to 100 μg/mL (initial) enzyme concentration and 55.55 μg/mL (initial) substrate concentration prior to use. Test samples and standard inhibitor phosphoramidon disodium salt used as positive control were dissolved in H2O/DMSO, always maintaining a final DMSO concentration of 1% in each well. The final reaction volume of 100 μL was composed of 25 μL buffer solution, and 25 μL sample/positive controls which were added first followed by 25 μL enzyme. This mixture was incubated for 10 min at 37 °C. Finally, 25 µL of substrate were added to initiate the readout reaction. The substrate which carries a fluorogenic residue (7-methoxycoumarin-4-yl acetic acid) is continuously dissipated by the enzyme collagenase. Measurements are taken after 30 min at an excitation wavelength of λ = 320 nm and λ = 400 nm emission wavelengths in a 96-well microplate format using an Infinite F 200 pro microplate reader equipped with filter-based technology (Tecan, Männedorf, Switzerland). An untreated control group containing 1% DMSO without sample was set to 100% enzyme activity. Blank wells without enzyme were measured accordingly and subtracted from the fluorescent units of each well. Two positive controls were used. First, the well-established phosphoramidon disodium salt and second, to include natural product based inhibitors, rutin and EGCG were used. Measurements were performed in triplicates using 96 well plates, and each substance was measured in three independent experiments. […] IC50 values were calculated by fitting data (log (Inhibitor) vs. response–variable slope) using GraphPad Prism (GraphPad Software, San Diego, CA, USA).
Statistics: The data were analyzed at least in three independent experiments and were expressed as mean ± SEM. A Shapiro Wilk normality test was performed to confirm the Gaussian distribution of the data. One-way ANOVA, followed by a Dunett’s multiple comparison test in GraphpadPrism 5 were performed to clarify statistical significance. p-Value of ≤ 0.05 was considered statistically significant.

pentosidine-like AGEs [2] = test: Inhibition of advanced glycation end products (AGEs) formation, BSA/D-ribose fluorescence assay; assay type: biochemical; settings: for IC50: BSA 10 mg/mL, D-ribose 0.5 M, 37 °C, 24 h
Description: The anti-AGE assay was carried out following the methodology previously reported by Séro et al.. Briefly, the samples (1 µM to 3 mM) were incubated with D-ribose (0.5 M) and bovine serum albumin (BSA, 10 mg/mL) in a Na-phosphate buffer (50 mM pH 7.4); the solutions were incubated in black microtiter plates (96 wells) at 37 °C for 24 h in a closed system before AGE fluorescence measurement. Both vesperlysines-like (λexc370 nm; λem440 nm) and pentosidine-like (λexc335 nm; λem385 nm) AGE fluorescence were measured using a microplate spectrofluorometer Infinite M200 (Tecan, Lyon, France). To avoid quenching phenomena, the fluorescence resulting from the incubation in the same conditions of BSA (10 mg/mL) and the tested extract (1 µM to 3 mM) was subtracted from each measurement. The negative control, i.e., 100% inhibition of AGEs formation, consisted of wells with only BSA. A control, i.e., no inhibition of AGEs formation, consisted of wells with BSA (10 mg/mL) and D-ribose (0.5 M). The final volume assay was 100 µL. The percentage of AGE formation was calculated as follows for each extract concentration: AGEs (%) = (fluorescence intensity [sample]−fluorescence [blank of sample]/fluorescence intensity [control]−fluorescence [blank of control]) × 100.
Dose-effect curves were best fitted with a sigmoidal dose-response equation [four parameters logistic model: bottom and top plateaus, the EC50, and the slope factor (Hill’s slope)] using Sigma Plot 14.0 software, which enabled calculation of the IC50 values. The acceptance criteria were established by the correlation coefficient (r²) > 0.97. Results were compared with those of reference products, aminoguanidine and rutin.

HaCaT keratinocytes = test: Wound scratch assay; assay type: cell-based, human; settings: 1 µM and 10 µM, after 24 h, p < 0.05 vs untreated control
Description: HaCaT keratinocytes were provided by Prof. Dr. Norbert E. Fusenig (DKFZ, Heidelberg, Germany) and cultivated in a DMEM medium, supplemented with FCS (10%), penicillin/streptomycin solution (1%), and non-essential amino acids (1%) (PAA, Pasching, Austria). HaCaT keratinocytes were cultivated at 37 °C, 5% CO2.
The evaluation of 4 different MAAs (compounds 1, 2, 4, and 8) on the migration of HaCaT cells was determined as described by Balekar et al.. HaCaT cells were plated into a 12-well plate at a concentration of 1 × 10^5 cells containing Dulbecco’s modified Eagle’s medium culture medium (DMEM) supplemented with 10% fetal calf serum (FCS) and incubated at 37 °C in a humidified 5% CO2 atmosphere until confluence has been reached. After attachment of the cells to the plate, medium was removed and the adherent cell layer was scratched with a sterile pipette tip. Cellular debris was removed by washing off with PBS (2 × 1 mL). Subsequently, the cells were treated with DMEM supplemented with 10% FCS containing the individual MAA test compounds at the concentrations of (10 µM to 1 µM). Control cells received only fresh DMEM +10% FCS, cells used as the positive control were treated with fresh DMEM + 20% FCS. Following, the cell cultures were incubated at […] in a humidified 5% CO2 atmosphere. Finally, the area of each scratch was determined by quantitative imaging at time 0 (just after scratching cell monolayers) and after 24 h treatment with the compounds (Leica DFC300, Wetzlar Germany; 40× magnification). The captured images were then analyzed using Image J software.
The migration rate can be expressed as the percentage of area reduction or wound closure:(2) Wound closure %=100 [Area (t0)−Area( t24)/Area (t0)]
Statistical analysis: The data were analyzed in three independent experiments and were expressed as mean ± SEM. One-way ANOVA, followed by an unpaired t-test to compare control group and treated group was performed. P-value of ≤ 0.05 was considered as statistically significant.

collagenase type V [3] = target: collagenase type V; set-up: method as in Hartmann et al. [18]; settings: collagenase results previously published; 95% confidence interval in brackets; ref Hartmann et al. [18]; read-out: Collagenase Inhibition IC50 µM (CI 95 ±); cited from earlier work
pentosidine-like AGEs [4] = settings: cited from earlier work
[5] = test system: hen egg white lysozyme (HEWL); settings: read-out: Inhibition of glycation-dependent cross-linking of HEWL, IC50; literature finding, reference not given; cited from earlier work
collagenase = settings: cited from earlier work
[6] = test system: UV-A induced MMPs such as MMP-1 and elastase; set-up: method as in Ryu et al. [20]; settings: concentrations at 40 µM; ref Ryu et al. [20]; cited from earlier work
[7] = concentration range 1 to 350 µM
[8] = read-out: Collagenase inhibition IC50

Compound	IC50 (pentosidine-like AGEs [2])	IC50 (collagenase type V [1])	further results
C[C@@H]1O[C@@H](OC[C@H]2O[C@@H](Oc3c(-c4ccc(O)c(O)c4)oc4cc(O)cc(O)c4c3=O)[C@H](O)[C@@H](O)[C@@H]2O)[C@H](O)[C@H](O)[C@H]1O [Rutin, reference compound]	85 µM		Collagenase inhibition (collagenase type V [1]; at 100 µM, 1% DMSO control group set to 100% enzyme activity): 100 µM -> 52% Inhibition *
COC1=C(NC[C@@H](C)O)C[C@](O)(CO)CC1=NCC(=O)O [Compound 5, aplysiapalythine A]	400 µM	80.7 µM	
COC1=C(NCC(=O)O)CC(O)(CO)CC1=N (stereo not drawn) [palythine]			Anti-AGEs activity (pentosidine-like AGEs [2]; concentration range 1 µM to 3 mM): weakest effect
CC(C)C[C@H](NP(=O)(O)O[C@@H]1O[C@@H](C)[C@H](O)[C@@H](O)[C@H]1O)C(=O)N[C@@H](Cc1c[nH]c2ccccc12)C(=O)O [Phosphoramidon, phosphoramidon disodium salt, reference compound]		1.9 µM	
COC1=C(N[C@@H](CO)C(=O)O)C[C@](O)(CO)CC1=NCC(=O)O [Compound 1, Shinorine]	103 µM		Migration / wound closure in scratch assay (words) (HaCaT keratinocytes): significant migration and narrowing of the scratch area; IC50 (collagenase type V [3]): 104 µM
COC1=C(NCC(=O)O)CC(O)(CO)CC1=NCCO (stereo not drawn) [asterina-330]			Collagenase inhibition (collagenase type V [1]; [7]): good inhibition
O=c1c(O)c(-c2ccc(O)c(O)c2)oc2cc(O)cc(O)c12 [quercetin]			AGEs inhibition (pentosidine-like AGEs [4]): strong AGEs inhibitor
COC1=C(N[C@H](C(=O)O)[C@@H](C)O)C[C@](O)(CO)CC1=N[C@@H](CCC(N)=O)C(=O)O [Compound 8, bostrychine-B]		104 µM	Migration / wound closure in scratch assay (words) (HaCaT keratinocytes): significant migration and narrowing of the scratch area; Migration / wound closure in scratch assay (words) (HaCaT keratinocytes; listed as bostrychine B): slightly higher wound closure ability
COC1=C(NCCC(=O)O)C[C@@](O)(CO)CC1=N[C@H](C(=O)O)[C@@H](C)O [Compound 12, bostrychine-F]	200 µM	90 µM	
COC1=C(NC[C@@H](C)O)C[C@@](O)(CO)CC1=N[C@@H](CCC(=O)O)C(=O)O [Compound 11, bostrychine-E]	150 µM	163 µM	
COC1=C(NCC(=O)O)CC(O)(CO)CC1=NCC(=O)O (stereo not drawn) [mycosporine-2-glycine]			IC50 [5]: 1610 µM
OC[C@H]1O[C@@H](Oc2cc(O)cc(/C=C/c3ccc(O)c(O)c3)c2)[C@H](O)[C@@H](O)[C@@H]1O [E-astringin]			IC50 (collagenase; [8]): 125 µM
COC1=C(N[C@H](C(=O)O)[C@@H](C)O)C[C@](O)(CO)CC1=NCC(=O)O [Compound 2, porphyra-334]	90 µM		Migration / wound closure in scratch assay (words) (HaCaT keratinocytes): significant migration and narrowing of the scratch area; IC50 (collagenase type V [3]): 106 µM; Inhibition of UV-A induced MMPs such as MMP-1 and elastase [6]: concentration-dependent inhibition; Procollagen production [6]: increase in procollagen production
COC1=C(N[C@H](C(=O)O)[C@@H](C)O)C[C@](O)(CO)CC1=N[C@@H](CCC(=O)O)C(=O)O [Compound 10, bostrychine-D]	85 µM	118 µM	
N=C(N)NN [Aminoguanidine, reference compound]	1400 µM		
O=C(O[C@@H]1Cc2c(O)cc(O)cc2O[C@@H]1c1cc(O)c(O)c(O)c1)c1cc(O)c(O)c(O)c1 [Epigallocatechingalleate, reference compound]		46.6 µM	IC50 (collagenase; used as positive control in many publications, read-out: Collagenase inhibition IC50 (published values)): ~220 µM
COC1=C(NCC(C)O)C[C@](O)(CO)CC1=NCC(=O)O (stereo partly drawn) [aplysiapalythine A]			Collagenase inhibition (collagenase type V [1]; [7]): good inhibition
O=C1c2c(O)cc(O)cc2OC(c2ccc(O)c(O)c2)C1O (stereo not drawn) [taxifolin]			IC50 (collagenase; [8]): 193 µM
COC1=C(NCC(=O)O)C[C@@](O)(CO)CC1=O [mycosporine-glycine]			Collagenase inhibition (collagenase type V [1]; [7]): very pronounced inhibition
CNC1=C(OC)C(=N[C@H](C(=O)O)[C@@H](C)O)C[C@](O)(CO)C1 [Compound 3, mycosporine-methylamine-threonine]	150 µM	250 µM	
OC[C@H]1O[C@@H](Oc2cc(O)cc(/C=C/c3ccc(O)cc3)c2)[C@H](O)[C@@H](O)[C@@H]1O [E-piceid]			IC50 (collagenase; [8]): 259 µM
COC1=C(N[C@@H](C)C(=O)O)C[C@](O)(CO)CC1=NCC(=O)O [Compound 4, mycosporine-alanine-glycine]	75 µM	158 µM	Migration / wound closure in scratch assay (words) (HaCaT keratinocytes): significant migration and narrowing of the scratch area
O=C1c2c(O)cc(O)cc2O[C@H](c2ccc(O)c(OC3O[C@H](CO)[C@@H](O)[C@H](O)[C@H]3O)c2)[C@H]1O (stereo partly drawn) [taxifolin 3′-O-glucopyranoside]			IC50 (collagenase; [8]): 141 µM
COC1=C(NCCO)C[C@](O)(CO)CC1=NCC(=O)O [Compound 6, asterina-330]	125 µM	70.9 µM	
